The source of these data is patent US20220339150A1, “ENDOCANNABINOID SYSTEM-TARGETING PRODRUGS AND THERAPEUTIC USES THEREOF” (priority 2021, published 2022).

What is called half-life is how long it takes for the measured level to halve. The microsomal CLint is the rate of metabolic loss divided by the concentration. A high value points to rapid turnover.

Data set [1] is described as follows: Stability in 80% human plasma (serum). The data set is classed as in vitro ADME. As to conditions: 80% human serum (pH 7.4) at 37° C.; for Half-life in serum: Table 5. The method, then:
The rates of the degradation of the prodrugs were determined in 80% human serum (pH 7.4) at 37° C. as an indication of the susceptibility of prodrugs to undergo bioconversion after reaching the circulation. The reactions were initiated by adding the first 10 μL of the prodrug stock solution (10 mg/mL in DMSO) to 200 μL preheated sodium phosphate buffer solution (50 mM, pH 7.4, ionic strength 0.5), and then adding 800 μL preheated human serum. The solutions were stirred at a constant temperature of 37° C. At appropriate intervals, 50 μL of samples were mixed with 150 μL of ice-cold MeOH. After immediate mixing and centrifugation (5 min at 14.000 rpm), the resulting clear supernatant was analyzed for the remaining prodrug by HPLC.

A short description of data set [2]: Metabolic stability in human liver microsomes. The data set is classed as in vitro ADME. As to conditions: for Half-life in human liver microsomes (single determinations) / microsomal CLint: Table 5. On the procedure: The prodrugs were incubated with the human liver microsomes at 37° C. as an indication of the susceptibility of prodrugs to undergo bioconversion in the liver. The reactions were initiated by adding 1.5 μL of the prodrug stock solution (10 mg/mL in DMSO) to a preheated solution consisting of 748.5 μL potassium phosphate buffer solution (20 mM, pH 7.4, ionic strength 0.5), 200 μL NADPH, and 50 μLhuman liver microsomes (mixed gender, 0.5 ml at 20 mg/mL). The solutions were stirred at a constant temperature of 37° C. At appropriate intervals, 50 μLof samples were mixed with 100 μL of ice-cold MeOH. After immediate mixing and centrifugation (5 min at 14.000 rpm), the resulting clear supernatant was analyzed for the remaining prodrug by HPLC.
(In general: Liver microsomes are vesicles of endoplasmic reticulum, rich in cytochrome P450 enzymes.)

Data set [3] has as its system reconstructed human oral buccal epithelium cells (SkinEthic HOE, TR146 cells). Briefly: In vitro buccal permeability (SkinEthic human oral epithelium). As to conditions: for Flux compared with parent cannabinoid / Species making up the buccal flux / formation of parent cannabinoid / Flux (buccal): Table 4; for Flux compared with parent cannabinoid: buccal flux relative to parent; for Species making up the buccal flux / formation of parent cannabinoid / Species making up the buccal flux (parent vs intact prodrug): remark in flux cell; for Flux (buccal): suspension ca. 2 mg/ml in 5% EtOH/phosphate buffer pH 6.8, 37° C., receiver 15% HP-β-cyclodextrin; for Species making up the buccal flux (parent vs intact prodrug): Table 2; for Buccal permeation compared with parent cannabinoid (in words): 5% ethanol suspension. It counts as in vitro ADME. On the procedure:
The in vitro permeability studies were carried out in commercial reconstructed human oral buccal epithelium cells (SkinEthic™ human oral epithelium). The SkinEthic™ HOE model is composed of TR146 cells (derived from a squamous cell carcinoma of the buccal mucosa) cultivated on an inert polycarbonate filter at the air-liquid interface in a chemically defined medium. This model forms an epithelial tissue devoid of stratum corneum, resembling histologically to the mucosa of the oral cavity.
Upon receiving the cells, each insert (0.5 cm^2 or 0.33 cm^2) was placed in a plate containing 800 μL fresh medium at room temperature. The culture dishes were placed in the incubator at 37° C., 5% CO2, and saturated humidity overnight. Next day, the inserts were placed in a plate containing 800 μL 15% HP-β-cyclodextrin in H2O. The prodrugs were dissolved in 100% EtOH (5% (V/V) final conc.), and then sodium phosphate buffer solution (50 mM, pH 6.8, isotonic, 37° C.) was added (95% (V/V) final conc.). 400 μL of the prodrugs were applied as suspensions (ca. 2 mg/ml). The plates were stirred gently at 37° C. At appropriate intervals, the receptor compartment was sampled (100 μL) and replenished with fresh […] solution each time. The samples were mixed with 100 μL of MeOH, and analyzed for drug (both the parent cannabinoid and the prodrug) by HPLC-MS.
The buccal flux-values for the rate of delivery of drugs were determined from Fick's law of diffusion.

Data set [4] is described as follows: Stability in aqueous solutions (sodium phosphate buffer, 37° C.). It counts as physicochemical. As to conditions: for Half-life in aqueous solution: Table 5; for Half-life in aqueous solution / half-life: aqueous buffer pH 6.8, 37° C., single determinations; for half-life: buffer, pH 6.8, Table 5, read-out: Half-life in aqueous solution (converted). On the procedure: […] The solutions of prodrugs were prepared by adding 10 μL of stock solution (10 mg/mL in DMSO) to the preheated buffer. The solutions were stirred at a constant temperature of 37° C. At appropriate intervals, 75 μL of samples were mixed with 75 μL of MeOH and analyzed for remaining prodrug by HPLC.
The pseudo-first-order rate constants (kobs) and half-lives (t1/2) for the degradation of the prodrugs were determined from the linear slopes of the plots by taking the logarithm of the remaining prodrug over time. Equations: kobs=slope/−2.303 and t1/2=ln2/kobs.

Setting [5] is: both sexes, human, microsomes, pH 7.4, Table 5, 37° C., NADPH, read-out: Half-life in human liver microsomes (single determinations) (converted).
The mark [6] stands for this setting: both sexes, human, microsomes, pH 7.4, Table 5, average of determinations, read-out: Half-life in human liver microsomes (avg.) (converted).
The mark [7] stands for this setting: both sexes, human, microsomes, pH 7.4.

“Also recorded” adds a separate entry of the source. Like-named read-outs stand apart in the source and are kept apart here.

`CCCCCc1cc(OC(=O)N2CCN(C)CC2)c2c(c1)OC(C)(CCC=C(C)C)C=C2` (centres unmarked) [CBCp1, 2-methyl-2-(4-methylpent-3-en-1-yl)-7-pentyl-2H-chromen-5-yl4-methylpiperazine-1-carboxylate]: the Half-life in serum result in data set [1] is given as “stable for 6 hrs”. Further, the Half-life in human liver microsomes (single determinations) in data set [2] (37° C., NADPH) came to 3.13 h. The half-life at 15 µg/mL in data set [2] (setting [5]) was 4.18 h. For the same compound, in data set [2] (setting [6]), the half-life at 15 µg/mL is 3.65 h. In data set [3], the “Flux compared with parent cannabinoid” value is recorded as “No improvement”, the “Species making up the buccal flux / formation of parent cannabinoid” value was “NO significant formation of CBC” and the “Flux (buccal)” value was 15.88 ± 0.70 (prodrug) nmol/cm^2/h.
Regarding `CCCCCc1cc(OC(=O)N2CCNCC2)c2c(c1)OC(C)(CCC=C(C)C)C=C2` (centres unmarked) [CBCp3, 2-methyl-2-(4-methylpent-3-en-1-yl)-7-pentyl-2H-chromen-5-yl piperazine-1-carboxylate], in data set [1], the Half-life in serum result was “stable for 6 hrs”. In addition, in data set [2] (setting [6]), the half-life at 15 µg/mL is 14.9 h. Besides, in data set [3], the “Flux compared with parent cannabinoid” value was “No improvement”, the “Species making up the buccal flux / formation of parent cannabinoid” value is “NO significant formation of CBC” and the “Flux (buccal)” value is 5.74 ± 0.51 (prodrug) nmol/cm^2/h.
In the case of `CCCCCc1cc(O)c(C/C=C(\C)CCC=C(C)C)c(OC(=O)N2CCNCC2)c1` [CBGp5, (E)-2-(3,7-dimethylocta-2,6-dien-1-yl)-3-hydroxy-5-pentylphenyl piperazine-1-carboxylate], in data set [4], the Half-life in aqueous solution is 0.26 h and the half-life is 0.38 h. The Half-life in serum result in data set [1] is “No degradation”. Moreover, the Half-life in human liver microsomes (single determinations) in data set [2] (37° C., NADPH) came to 1.79 h. In addition, the half-life at 15 µg/mL in data set [2] (setting [5]) was 1.29 h. For the same compound, the half-life at 15 µg/mL in data set [2] (setting [6]) was 1.54 h. Besides, in data set [3], the “Flux compared with parent cannabinoid” value was “No improvement”, the “Species making up the buccal flux / formation of parent cannabinoid” value is “NO significant formation of CBG” and the “Flux (buccal)” value is given as 10.31 ± 0.54 (prodrug) nmol/cm^2/h.
Turning to `CCCCCc1cc(O)c(C/C=C(\C)CCC=C(C)C)c(O)c1` [CBG, Cannabigerol, reference compound], in data set [2] (setting [7]), the microsomal CLint at 15 µg/mL came to 7.18 µL/min/mg. Further, the half-life at 15 µg/mL is 1.61 h in data set [2] (both sexes, human, microsomes, pH 7.4, Half-life in human liver microsomes (avg.)) and 1.79 h in data set [2] (both sexes, human, microsomes, pH 7.4, Half-life in human liver microsomes (single determinations)). Also, the “Kobs (based on microsomes Half-life)” value in data set [2] (human, microsomes) is 0.43.
For `CCCCCc1cc(O)c2c(c1)OC(C)(C)[C@@H]1CCC(C)=C[C@@H]21` [THC, Δ9-Tetrahydrocannabinol, reference compound], the results for the half-life in data set [2] (setting [5]) and in data set [2] (setting [6]) were 0.17 h and 0.18 h, respectively. The compound further showed a microsomal CLint in data set [2] (setting [7]) of 64.2 µL/min/mg. The “Flux (buccal)” value in data set [3] is 19.65 ± 0.36 nmol/cm^2/h.
With `CCCCCc1cc(O)c(C/C=C(\C)CCC=C(C)C)c(OC(=O)N2CCN(C)CC2)c1` [CBGp2, (E)-2-(3,7-dimethylocta-2,6-dien-1-yl)-3-hydroxy-5-pentylphenyl 4-methylpiperazine-1-carboxylate], in data set [4], the Half-life in aqueous solution was 1.17 h and the half-life was 1.14 h. Also, the Half-life in serum entry in data set [1] is reported as “No degradation”. For the same compound, the Half-life in human liver microsomes (single determinations) in data set [2] (37° C., NADPH) is 1.73 h. Moreover, the half-life at 15 µg/mL in data set [2] (setting [5]) is 1.62 h. Further, in data set [2] (setting [6]), the half-life at 15 µg/mL is 1.68 h. Further, in data set [3], the “Flux compared with parent cannabinoid” value was “No improvement”, the “Species making up the buccal flux / formation of parent cannabinoid” value was “NO significant formation of CBG” and the “Flux (buccal)” value is given as 4.45 ± 0.45 (prodrug) nmol/cm^2/h.
`C=C(C)[C@@H]1CCC(C)=C[C@H]1c1c(O)cc(CCCCC)cc1OC(=O)N1CCCCC1` [CBDp17, (1′R,2′R)-6-hydroxy-5′-methyl-4-pentyl-2′-(prop-1-en-2-yl)-1′,2′,3′,4′-tetrahydro-[1,1′-biphenyl]-2-yl piperidine-1-carboxylate]: the “Species making up the buccal flux (parent vs intact prodrug)” value in data set [3] is recorded as “only intact prodrug”.
For the compound `C=C(C)[C@@H]1CCC(C)=C[C@H]1c1c(OC(=O)C2CCNC2)cc(CCCCC)cc1OC(=O)C1CCNC1` (stereo partly drawn) [CBDp24, (1′R,2′R)-5′-methyl-4-pentyl-2′-(prop-1-en-2-yl)-1′,2′,3′,4′-tetrahydro-[1,1′-biphenyl]-2,6-diyl bis(pyrrolidine-3-carboxylate)], the “Stability in standard and aqueous solutions (in words)” value in data set [4] (Table 3 footnote e) was “^e Could not be determined due to fast degradation in standard and aqueous solutions,”. Moreover, in data set [3], the “Buccal permeation compared with parent cannabinoid (in words)” value was “better than that of CBD; also recorded: superior when compared to CBD and other prodrugs”; the “Species making up the buccal flux (parent vs intact prodrug)” value is “mostly intact”.
Consider `C=C(C)[C@@H]1CCC(C)=C[C@H]1c1c(OC(=O)N2CCCCC2)cc(CCCCC)cc1OC(=O)N1CCCCC1` [CBDp18, (1′R,2′R)-5′-methyl-4-pentyl-2′-(prop-1-en-2-yl)-1′,2′,3′,4′-tetrahydro-[1,1′-biphenyl]-2,6-diyl bis(piperidine-1-carboxylate)], for which, in data set [3], the “Species making up the buccal flux (parent vs intact prodrug)” value is “only intact prodrug”.
For `CCCCCc1cc(O)c2c(c1)OC(C)(CCC=C(C)C)C=C2` (centres unmarked) [CBC, Cannabichromene, reference compound], the half-life in data set [2] (setting [5]) is 1.93 h; in data set [2] (setting [6]), 1.86 h. Besides, the microsomal CLint in data set [2] (setting [7]) came out at 6.21 µL/min/mg. Moreover, in data set [3], the “Flux (buccal)” value is reported as 27.87 ± 2.46 nmol/cm^2/h.
As to `C=C(C)[C@@H]1CCC(C)=C[C@H]1c1c(O)cc(CCCCC)cc1OC(=O)N1CCNCC1` [CBDp21, (1′R,2′R)-6-hydroxy-5′-methyl-4-pentyl-2′-(prop-1-en-2-yl)-1′,2′,3′,4′-tetrahydro-[1,1′-biphenyl]-2-yl piperazine-1-carboxylate], in data set [3], the “Buccal permeation compared with parent cannabinoid (in words)” value was “better than that of CBD” and the “Species making up the buccal flux (parent vs intact prodrug)” value is on record as “only intact prodrug”.
Compound `CCCCCc1cc(OC(=O)C2CCNC2)c2c(c1)OC(C)(C)[C@@H]1CCC(C)=C[C@@H]21` (stereo partly drawn) [THCp2, (6aR,10aR)-6,6,9-trimethyl-3-pentyl-6a,7,8,10a-tetrahydro-6H-benzo[c]chromen-1-yl pyrrolidine-3-carboxylate] came in with a Half-life in aqueous solution in data set [4] of 0.46 h. In addition, the half-life is 0.49 h in data set [4]; 0.42 h in data set [1] (human, serum, pH 7.4, Table 5); 2.09 h in data set [2] (setting [5]); 2.44 h in data set [2] (setting [6]). The compound further returned a Half-life in serum in data set [1] of 0.43 h. Moreover, the Half-life in human liver microsomes (single determinations) in data set [2] (37° C., NADPH) stood at 2.79 h.
